Starred links: 1 amine or outer side, 2 acyl side, 3 side chain; linkers in the order of their positions; H or OH if unused. Positions of bridges follow the written chain, without caps; N, C: chain ends. Residues, ends and D or L forms follow the SMILES beside them. *: point of attachment. C18 diacid = O=C(O)CCCCCCCCCCCCCCCCC(=O)*; γGlu = O=C(O)[C@H](CCC(=O)[*:2])N[*:1]; AEEA = NCCOCCOCC(=O)O
assay: Thioflavin T (ThT) assay: lagtime and peptide recovery; assay type: physicochemical; conditions: ThT assay, pH 6.5, 37° C.; assay terminated after 45 hours
Description: The ThT assay was used to evaluate physical stability of the CNP compounds and their suitability for liquid formulation. Low physical stability of peptides may lead to amyloid fibril formation, which is observed as well-ordered, thread-like macromolecular structures in the sample eventually resulting in gel formation. This has traditionally been tested by visual inspection of the sample. However, that kind of measurement is very subjective and depending on the observer. Therefore, the application of a small molecule indicator probe is much more advantageous. Thioflavin T (ThT) is such a probe and has a distinct fluorescence signature when binding to fibrils [Naiki et al. (1989) Anal. Biochem. 177, 244-249; LeVine (1999) Methods. Enzymol. […], 274-284].
Procedure: Thioflavin T was added to the supernatant samples from Example 5 (pH 4.0 and 6.5) using an aqueous ThT stock solution to a final concentration of about 1 μM in the samples. Sample aliquots of 150 μL were placed in a 96 well microtiter plate (Packard OptiPlate™-96, white polystyrene). Usually, two to three replicas of each sample were applied to the plate. The plate was sealed and placed in a fluorescence plate reader (Fluoroskan Ascent FL) and incubated at 37° C. with orbital shaking (960 rpm; 1 mm amplitude). Fluorescence measurements were performed every 20 minutes using excitation through a 444 nm filter and measurement of emission through a 485 nm filter. Between each measurement, the plate was shaken and heated as described above and the assay was terminated after 45 hours. Fluorescence measurements for each microtiter plate well were plotted against time and the lag-time (time until an increase in ThT fluorescence was observed) was estimated.
To assess loss of dissolved peptide following 45h incubation, peptide recovery was measured as the ratio between total peak area after incubation vs. before incubation using the RP-UPLC method described below.
Measurement of LagTime and Peptide recovery % using RP-UPLC: RP-UPLC was conducted using an Acquity UPLC BEH C18 1.7 μm (2.1×30 mm) Waters column (Eluent A: 0.1% v/v % TFA in water; Eluent B: 0.1% v/v TFA in acetonitrile/water 4:1) with gradient elution (0 min: 95% A; 2 min: 20% A; 2.3 min: 20% A; 2.4 min: 95% A; 9 min: 95% A) in a flow rate of 0.9 mL/min and a column temperature of 30° C. UV-detection at 215 nm was used to assess the total peptide area.
Samples at pH 4.0 were prepared as described in Example 5 and subjected to the ThT assay as described above.
Samples at pH 6.5 were prepared as described in Example 5 and subjected to the ThT assay as described above.

Row | SMILES | LagTime (h) at pH 6.5 [h]
1 | CC[C@H](C)[C@@H]1NC(=O)[C@H](CCCNC(=N)N)NC(=O)[C@H](CC(=O)O)NC(=O)[C@H](CC(C)C)NC(=O)[C@@H]2CCCN2C(=O)[C@H](CC(C)C)NC(=O)CNC(=O)[C@H](Cc2ccccc2)NC(=O)[C@@H](NC(=O)CNC(=O)[C@H](CCC(N)=O)NC(=O)[C@H](CO)NC(=O)[C@H](CC(C)C)NC(=O)CNC(=O)[C@H](CCCCN)NC(=O)[C@H](CCCCN)NC(=O)[C@H](CCC(N)=O)NC(=O)[C@H](C)NC(=O)CNC(=O)[C@H](CCCCN)NC(=O)[C@H](Cc2ccc(O)cc2)NC(=O)[C@H](CCCCN)NC(=O)[C@H](Cc2c[nH]cn2)NC(=O)[C@H](C)NC(=O)[C@H](CCC(N)=O)NC(=O)[C@@H]2CCCN2C(=O)[C@H](Cc2c[nH]cn2)NC(=O)[C@H](CCC(=O)O)NC(=O)[C@H](CCC(N)=O)NC(=O)COCCOCCNC(=O)COCCOCCNC(=O)CC[C@H](NC(=O)CC[C@H](NC(=O)CC[C@H](NC(=O)CCCCCCCCCCCCCCCCC(=O)O)C(=O)O)C(=O)O)C(=O)O)CSSC[C@@H](C(=O)O)NC(=O)CNC(=O)[C@H](CC(C)C)NC(=O)CNC(=O)[C@H](CO)NC(=O)[C@H](CC(C)C)NC(=O)[C@H](CO)NC(=O)CNC1=O [compound 1382] ({C18 diacid-γGlu-γGlu-γGlu-AEEA-AEEA}-QEHPQAHKYKGAQKKGLSQGCFGLPLDRIGSLSGLGC-OH; disulfide 21-37) | 45
2 | CC[C@H](C)[C@@H]1NC(=O)[C@H](CCCNC(=N)N)NC(=O)[C@H](CC(=O)O)NC(=O)[C@H](CC(C)C)NC(=O)[C@@H]2CCCN2C(=O)[C@H](CC(C)C)NC(=O)CNC(=O)[C@H](Cc2ccccc2)NC(=O)[C@@H](NC(=O)CNC(=O)[C@H](CCC(N)=O)NC(=O)[C@H](CO)NC(=O)[C@H](CC(C)C)NC(=O)CNC(=O)[C@H](CCCCN)NC(=O)[C@H](CCCCN)NC(=O)[C@H](CCC(N)=O)NC(=O)[C@H](C)NC(=O)CNC(=O)[C@H](CCCCN)NC(=O)[C@H](Cc2ccc(O)cc2)NC(=O)[C@H](CCCCN)NC(=O)[C@H](CCCNC(=N)N)NC(=O)[C@H](C)NC(=O)[C@H](CCC(N)=O)NC(=O)[C@@H]2CCCN2C(=O)[C@H](Cc2c[nH]cn2)NC(=O)[C@H](CCC(=O)O)NC(=O)[C@H](CCC(N)=O)NC(=O)COCCOCCNC(=O)COCCOCCNC(=O)CC[C@H](NC(=O)CC[C@H](NC(=O)CC[C@H](NC(=O)CC[C@H](NC(=O)CC[C@H](NC(=O)CC[C@H](NC(=O)CCCCCCCCCCCCCCCCC(=O)O)C(=O)O)C(=O)O)C(=O)O)C(=O)O)C(=O)O)C(=O)O)CSSC[C@@H](C(=O)O)NC(=O)CNC(=O)[C@H](CC(C)C)NC(=O)CNC(=O)[C@H](CO)NC(=O)[C@H](CC(C)C)NC(=O)[C@H](CO)NC(=O)CNC1=O [compound 1402] ({C18 diacid-γGlu-γGlu-γGlu-γGlu-γGlu-γGlu-AEEA-AEEA}-QEHPQARKYKGAQKKGLSQGCFGLPLDRIGSLSGLGC-OH; disulfide 21-37) | 45
3 | CC[C@H](C)[C@@H]1NC(=O)[C@H](CCCNC(=N)N)NC(=O)[C@H](CC(=O)O)NC(=O)[C@H](CC(C)C)NC(=O)[C@@H]2CCCN2C(=O)[C@H](CC(C)C)NC(=O)CNC(=O)[C@H](Cc2ccccc2)NC(=O)[C@@H](NC(=O)CNC(=O)[C@H](CCC(N)=O)NC(=O)[C@H](CO)NC(=O)[C@H](CC(C)C)NC(=O)CNC(=O)[C@H](CCCCN)NC(=O)[C@H](CCCCN)NC(=O)[C@H](CCC(N)=O)NC(=O)[C@H](C)NC(=O)CNC(=O)[C@H](CCCCN)NC(=O)[C@H](Cc2ccc(O)cc2)NC(=O)[C@H](CCCCN)NC(=O)[C@H](CCCNC(=N)N)NC(=O)[C@H](C)NC(=O)[C@H](CCC(N)=O)NC(=O)[C@@H]2CCCN2C(=O)[C@H](Cc2c[nH]cn2)NC(=O)[C@H](CCC(=O)O)NC(=O)[C@H](CCC(N)=O)NC(=O)COCCOCCNC(=O)COCCOCCNC(=O)COCCOCCNC(=O)COCCOCCNC(=O)CC[C@H](NC(=O)CC[C@H](NC(=O)CC[C@H](NC(=O)CC[C@H](NC(=O)CC[C@H](NC(=O)CC[C@H](NC(=O)CCCCCCCCCCCCCCCCC(=O)O)C(=O)O)C(=O)O)C(=O)O)C(=O)O)C(=O)O)C(=O)O)CSSC[C@@H](C(=O)O)NC(=O)CNC(=O)[C@H](CC(C)C)NC(=O)CNC(=O)[C@H](CO)NC(=O)[C@H](CC(C)C)NC(=O)[C@H](CO)NC(=O)CNC1=O [compound 1404] ({C18 diacid-γGlu-γGlu-γGlu-γGlu-γGlu-γGlu-AEEA-AEEA-AEEA-AEEA}-QEHPQARKYKGAQKKGLSQGCFGLPLDRIGSLSGLGC-OH; disulfide 21-37) | 45
4 | CC[C@H](C)[C@@H]1NC(=O)[C@H](CCCNC(=N)N)NC(=O)[C@H](CC(=O)O)NC(=O)[C@H](CC(C)C)NC(=O)[C@@H]2CCCN2C(=O)[C@H](CC(C)C)NC(=O)CNC(=O)[C@H](Cc2ccccc2)NC(=O)[C@@H](NC(=O)CNC(=O)[C@H](CCC(N)=O)NC(=O)[C@H](CO)NC(=O)[C@H](CC(C)C)NC(=O)CNC(=O)[C@H](CCCCN)NC(=O)[C@H](CCCCN)NC(=O)[C@H](CCC(N)=O)NC(=O)[C@H](C)NC(=O)CNC(=O)[C@H](CCCCN)NC(=O)[C@H](Cc2ccc(O)cc2)NC(=O)[C@H](CCCCN)NC(=O)[C@H](CCCNC(=N)N)NC(=O)[C@H](C)NC(=O)[C@H](CCC(N)=O)NC(=O)[C@@H]2CCCN2C(=O)[C@H](Cc2c[nH]cn2)NC(=O)[C@H](CCC(=O)O)NC(=O)[C@H](CCC(N)=O)NC(=O)COCCOCCNC(=O)COCCOCCNC(=O)COCCOCCNC(=O)COCCOCCNC(=O)CC[C@H](NC(=O)CC[C@H](NC(=O)CC[C@H](NC(=O)CC[C@H](NC(=O)CC[C@H](NC(=O)CCCCCCCCCCCCCCCCC(=O)O)C(=O)O)C(=O)O)C(=O)O)C(=O)O)C(=O)O)CSSC[C@@H](C(=O)O)NC(=O)CNC(=O)[C@H](CC(C)C)NC(=O)CNC(=O)[C@H](CO)NC(=O)[C@H](CC(C)C)NC(=O)[C@H](CO)NC(=O)CNC1=O [compound 1406] ({C18 diacid-γGlu-γGlu-γGlu-γGlu-γGlu-AEEA-AEEA-AEEA-AEEA}-QEHPQARKYKGAQKKGLSQGCFGLPLDRIGSLSGLGC-OH; disulfide 21-37) | 45
5 | CC[C@H](C)[C@@H]1NC(=O)[C@H](CCCNC(=N)N)NC(=O)[C@H](CC(=O)O)NC(=O)[C@H](CC(C)C)NC(=O)[C@@H]2CCCN2C(=O)[C@H](CC(C)C)NC(=O)CNC(=O)[C@H](Cc2ccccc2)NC(=O)[C@@H](NC(=O)CNC(=O)[C@H](CCC(N)=O)NC(=O)[C@H](CO)NC(=O)CNC(=O)CNC(=O)[C@H](CCCCN)NC(=O)[C@H](Cc2c[nH]cn2)NC(=O)[C@H](CCC(N)=O)NC(=O)[C@H](C)NC(=O)CNC(=O)[C@H](CCC(=O)O)NC(=O)[C@H](Cc2ccc(O)cc2)NC(=O)[C@H](CCCCN)NC(=O)[C@H](CCCNC(=N)N)NC(=O)[C@H](C)NC(=O)COCCOCCNC(=O)COCCOCCNC(=O)COCCOCCNC(=O)COCCOCCNC(=O)CC[C@H](NC(=O)CC[C@H](NC(=O)CCCCCCCCCCCCCCCCC(=O)O)C(=O)O)C(=O)O)CSSC[C@@H](C(=O)O)NC(=O)CNC(=O)[C@H](CC(C)C)NC(=O)CNC(=O)[C@H](CO)NC(=O)[C@H](CC(C)C)NC(=O)[C@H](CO)NC(=O)CNC1=O [compound 1432] ({C18 diacid-γGlu-γGlu-AEEA-AEEA-AEEA-AEEA}-ARKYEGAQHKGGSQGCFGLPLDRIGSLSGLGC-OH; disulfide 16-32) | 45

same assay, conditions: ThT, 37° C., shaking; assay terminated after 45 hours

Row | SMILES | LagTime (h) at pH 4.0 [h]
6 | CC[C@H](C)[C@@H]1NC(=O)[C@H](CCCNC(=N)N)NC(=O)[C@H](CC(=O)O)NC(=O)[C@H](CC(C)C)NC(=O)[C@@H]2CCCN2C(=O)[C@H](CC(C)C)NC(=O)CNC(=O)[C@H](Cc2ccccc2)NC(=O)[C@@H](NC(=O)CNC(=O)[C@H](CO)NC(=O)[C@H](CO)NC(=O)[C@@H](NC(=O)CNC(=O)[C@H](CCCCN)NC(=O)[C@H](CCCCN)NC(=O)[C@H](CCC(N)=O)NC(=O)[C@H](C)NC(=O)CNC(=O)[C@H](Cc2c[nH]cn2)NC(=O)[C@H](Cc2ccc(O)cc2)NC(=O)[C@H](CCCCN)NC(=O)[C@H](CCCNC(=N)N)NC(=O)[C@H](C)NC(=O)COCCOCCNC(=O)COCCOCCNC(=O)CC[C@H](NC(=O)CC[C@H](NC(=O)CC[C@H](NC(=O)CCCCCCCCCCCCCCCCC(=O)O)C(=O)O)C(=O)O)C(=O)O)C(C)C)CSSC[C@@H](C(=O)O)NC(=O)CNC(=O)[C@H](CC(C)C)NC(=O)CNC(=O)[C@H](CO)NC(=O)[C@H](CC(C)C)NC(=O)[C@H](CO)NC(=O)CNC1=O [compound 1422] ({C18 diacid-γGlu-γGlu-γGlu-AEEA-AEEA}-ARKYHGAQKKGVSSGCFGLPLDRIGSLSGLGC-OH; disulfide 16-32) | 45
